Where “and” joins values, the source holds several entries; their conditions need not be identical. Identical values can stand only once. Toxic doses and inconclusive results are not listed. Square brackets hold non-standard residues; d marks the D form. Peptide text beside a SMILES is read from it. * marks the point of attachment. ξ: configuration not given here. Boc = CC(C)(C)OC(=O)*; ξP = O=C(O)C1CCCN1
Test system: BDF1 mice, B16 melanoma ip, median survival T/C
Assay: NCI In Vivo Anticancer Drug Screen. Data for tumor model B16 Melanoma (intraperitoneal) in B6D2F1 (BDF1) mice
Conditions: endpoint: median survival time, higher = longer survival
In short: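 Read-out: survival or tumor size, given as treated/control ratio. Controls received vehicle only; animals bore transplantable tumors.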

[1] = dose: 50.0 mg/kg/injection, schedule: Q01DX009 (ip), vehicle: saline
[2] = dose: 100.0 mg/kg/injection, schedule: Q01DX009 (ip), vehicle: saline
[3] = dose: 200.0 mg/kg/injection, schedule: Q01DX009 (ip), vehicle: saline
[4] = dose: 400.0 mg/kg/injection, schedule: Q01DX009 (ip), vehicle: saline
[5] = dose: 100.0 mg/kg/injection, schedule: Q01DX009 (ip), vehicle: Klucel (hydroxypropylcellulose) (HPC)
[6] = dose: 200.0 mg/kg/injection, schedule: Q01DX009 (ip), vehicle: Klucel (hydroxypropylcellulose) (HPC)
[7] = dose: 400.0 mg/kg/injection, schedule: Q01DX009 (ip), vehicle: Klucel (hydroxypropylcellulose) (HPC)
[8] = dose: 50.0 mg/kg/injection, schedule: Q01DX009 (ip), vehicle: Klucel (hydroxypropylcellulose) (HPC)

## COC1=C(N)C(=O)c2nc(-c3nc(C(=O)O)c(C)c(-c4ccc(OC)c(OC)c4O)c3N)ccc2C1=O
dose: 0.03 mg/kg/injection, schedule: Q01DX009 (ip), vehicle: saline
  T/C: 113 % of control
dose: 0.05 mg/kg/injection, schedule: Q01DX009 (ip), vehicle: saline
  T/C: 102 % of control
dose: 0.1 mg/kg/injection, schedule: Q01DX009 (ip), vehicle: saline
  T/C: 102 % of control
dose: 0.2 mg/kg/injection, schedule: Q01DX009 (ip), vehicle: saline
  T/C: 113 % of control
dose: 0.4 mg/kg/injection, schedule: Q01DX009 (ip), vehicle: saline
  T/C: 100 % of control
dose: 25.0 micrograms/kg/injection, schedule: Q01DX009 (ip), vehicle: saline
  T/C: 100 % of control
dose: 50.0 micrograms/kg/injection, schedule: Q01DX009 (ip), vehicle: saline
  T/C: 111 % of control
dose: 100.0 micrograms/kg/injection, schedule: Q01DX009 (ip), vehicle: saline
  T/C: 112 % of control
dose: 200.0 micrograms/kg/injection, schedule: Q01DX009 (ip), vehicle: saline
  T/C: 104 % of control

## COC(=O)C1CCCN1C(=O)CNC(=O)OC(C)(C)C (stereo not drawn) (Boc-Gly-[ξP]-OMe)
[1]
  T/C: 94 % of control
[2]
  T/C: 103 % of control
[3]
  T/C: 91 % of control
[4]
  T/C: 88 % of control

## CC(=O)CC(=O)Nc1cccc(C)c1
[5]
  T/C: 105 % of control
[6]
  T/C: 100 % of control
[7]
  T/C: 92 % of control

## COc1cc2c(c(OC)c1OC)-c1ccc(OC)c(=O)cc1[C@@H](NC(=O)CF)CC2
dose: 0.04 mg/kg/injection, schedule: Q01DX009 (ip), vehicle: saline with Tween-80
  T/C: 116 % of control
dose: 0.09 mg/kg/injection, schedule: Q01DX009 (ip), vehicle: saline with Tween-80
  T/C: 118 % of control

## CCN1/C(=C/C(C)=C/c2sc3ccccc3[n+]2CC)Sc2ccccc21
dose: 0.03 mg/kg/injection, schedule: Q01DX009 (ip), vehicle: saline with Tween-80
  T/C: 104 % of control
dose: 0.05 mg/kg/injection, schedule: Q01DX009 (ip), vehicle: saline with Tween-80
  T/C: 100 % of control
dose: 0.1 mg/kg/injection, schedule: Q01DX009 (ip), vehicle: saline with Tween-80
  T/C: 100 % of control

## O=C1CC2(C(=O)N1CN1CCCCC1)c1ccccc1-c1ccccc12
dose: 12.5 mg/kg/injection, schedule: Q01DX009 (ip), vehicle: Klucel (hydroxypropylcellulose) (HPC)
  T/C: 114 % of control
[8]
  T/C: 112 % of control
[5]
  T/C: 112 % of control
[6]
  T/C: 112 % of control

## CNC(c1ccncc1)C(NC)c1ccncc1 (configuration not stated)
dose: 100.0 mg/kg/injection, schedule: Q04DX003 (ip), vehicle: Klucel (hydroxypropylcellulose) (HPC)
  T/C: 95 % of control
dose: 400.0 mg/kg/injection, schedule: Q04DX003 (ip), vehicle: Klucel (hydroxypropylcellulose) (HPC)
  T/C: 91 % of control

## Nc1ccc(OC(F)(F)C(F)Cl)cc1 (configuration not stated)
[5]
  T/C: 86 % of control
[6]
  T/C: 96 % of control
[7]
  T/C: 103 % of control

## Cc1cc(Cc2ccc(N=C=O)c(C)c2)ccc1N=C=O
dose: 3.13 mg/kg/injection, schedule: Q01DX009 (ip), vehicle: saline with Tween-80
  T/C: 89 % of control
dose: 6.25 mg/kg/injection, schedule: Q01DX009 (ip), vehicle: saline with Tween-80
  T/C: 92 % of control
dose: 12.5 mg/kg/injection, schedule: Q01DX009 (ip), vehicle: saline with Tween-80
  T/C: 92 % of control and 102 % of control

## Cc1c2cc[n+](C)cc2c(C)c2c1[nH]c1ccc(O)cc12
dose: 0.06 mg/kg/injection, schedule: Q01DX009 (ip), vehicle: water
  T/C: 111 % of control
dose: 0.25 mg/kg/injection, schedule: Q01DX009 (ip), vehicle: water
  T/C: 158 % of control

## O[C@H](CN1CC1)[C@@H](O)CN1CC1
dose: 0.13 mg/kg/injection, schedule: Q01DX009 (ip), vehicle: saline
  T/C: 117 % of control
dose: 0.25 mg/kg/injection, schedule: Q01DX009 (ip), vehicle: saline
  T/C: 151 % of control
dose: 0.5 mg/kg/injection, schedule: Q01DX009 (ip), vehicle: saline
  T/C: 166 % of control

## CC(=O)OCc1cccnc1
[1]
  T/C: 97 % of control
[2]
  T/C: 101 % of control
[3]
  T/C: 106 % of control
[4]
  T/C: 107 % of control

## O=S(=O)(OCC(F)(F)F)c1ccccc1
[8]
  T/C: 109 % of control
[5]
  T/C: 100 % of control
[6]
  T/C: 97 % of control

## C[n+]1c(-c2cccc(OCCCCCCCOc3cccc(-c4c5cc(N)ccc5c5ccc(N)cc5[n+]4C)c3)c2)c2cc(N)ccc2c2ccc(N)cc21
dose: 0.02 mg/kg/injection, schedule: Q01DX009 (ip), vehicle: water
  T/C: 95 % of control
dose: 0.04 mg/kg/injection, schedule: Q01DX009 (ip), vehicle: water
  T/C: 123 % of control
